# Measurements as given in US4734435A, “N-[[6-methoxy-5-(trifluoromethyl)-1-naphthalenyl]-thioxome thyl]-N-methylglycine S-oxide and the amide thereof” (American Home Products Corp., priority 1986, dated 1988).
# Columns and labels:
# [1] = test system: galactitol accumulation in the lenses and sciatic nerves; experiment: In vivo lowering of dulcitol (galactitol) accumulation in galactosemic rats; set-up: species or system rat (male, Sprague-Dawley); conditions: for effect on accumulation of galactitol in the lenses and sciatic nerves (in words): rats fed galactose
# Text: The aldose reductase inhibiting property of the compounds of this invention and the utilization of the compounds in preventing, diminishing and alleviating diabetic complications are demonstrable in experiments using galactosemic rats, see Dvornik et al, cited above. Such experiments are exemplified hereinbelow after the listing of the following general comments pertaining to these experiments:
# (a) Four or more groups of six male rats, 50-70 g, Sprague-Dawley strain, were used. The first group, the control group, was fed a mixture of laboratory chow (rodent Laboratory Chow, Purina) and glucose at 20% (w/w %) concentration. The untreated galactosemic group and the drug-treated groups were fed a similar diet in which galactose is substituted for glucose. The test compound was either admixed to the diet or administered by gavage. In experiments involving compound administration in the diet, the average dose administered was calculated from the actual food intake of the animals in each group. The concentration of galactose in the diet of the treated groups was the same as that for the untreated galactosemic group.
# (b) After four days, the animals were killed by decapitation. The eyeballs were removed and punctured with a razor blade; the freed lenses were rolled gently on filter paper and weighed. The sciatic nerves were dissected as completely as possible and weighed. Both tissues when frozen can be kept up to two weeks before being analyzed for galactitol.
# (c) The polyol determination was performed by a modification of the procedure of M. Kraml and L. Cosyns, Clin. Biochem., 2, 373 (1969). Only two minor reagent changes were made: (a) The rinsing mixture was an aqueous 5% (w/v) trichloroacetic acid solution and (b) the stock solution was prepared by dissolving 25 mg of dulcitol in 100 mL of an aqueous trichloroacetic acid solution. [N.B.: For each experiment the average value found in the tissue from rats fed the glucose diet was subtracted from the individual values found in the corresponding tissue in galactose-fed rats to obtain the amount of polyol accumulated.] The aldose reductase inhibiting effects of the compounds of formula (I) were also tested by employing an in vitro testing procedure similar to that described by S. Hayman and J. H. Kinoshita, J. Biol. Chem., 240, 877 (1965). In the present case the procedure of Hayman and Kinoshita was modified in that the final chromatography step was omitted in the preparation of the enzyme from bovine lens.
# The figures under L and N represent the percentage decrease of galactitol accumulation in the tissues of the lens and sciatic nerve, respectively, for treated rats as compared to untreated rats.
# aldose reductase = target: T1, aldose reductase (Bos taurus, UniProt P16116); experiment: In vitro inhibition of aldose reductase from bovine lens (modified Hayman and Kinoshita procedure); format: biochemical; conditions: 10^-7 M; enzyme from bovine lens
# T1 construct: preparation of the enzyme from bovine lens; from tissue; host or cells: bovine lens
# Experimental: Only two minor reagent changes were made: (a) The rinsing mixture was an aqueous 5% (w/v) trichloroacetic acid solution and (b) the stock solution was prepared by dissolving 25 mg of dulcitol in 100 mL of an aqueous trichloroacetic acid solution. [N.B.: For each experiment the average value found in the tissue from rats fed the glucose diet was subtracted from the individual values found in the corresponding tissue in galactose-fed rats to obtain the amount of polyol accumulated.] […] In the present case the procedure of Hayman and Kinoshita was modified in that the final chromatography step was omitted in the preparation of the enzyme from bovine lens.
# [2] = Metabolites of tolrestat found in humans and other mammals; format: in vivo
# [3] = lens, 50 mg/kg/day, gavage (same experiment), four days
# [4] = sciatic nerve, 50 mg/kg/day, gavage (same experiment), four days
smiles,measurement,setting,value
"COc1ccc2c(C(=O)N(C)CC(=O)O)cccc2c1C(F)(F)F [N--[[6-methoxy-5-(trifluoromethyl)-1-naphthalenyl]carbonyl]-N--methylglycine, reference compound]","% lowering dulcitol accumulation in vivo, L (lens)",[1]; [3],0%
same,"% lowering dulcitol accumulation in vivo, N (sciatic nerve)",[1]; [4],59%
COc1ccc2c(C(=S=O)N(C)CC(=O)O)cccc2c1C(F)(F)F [N-[[6-Methoxy-5-(trifluoromethyl)-1-naphthalenyl]thioxomethyl]-N-methylglycine S-oxide],inhibition at 0.1 µM,aldose reductase,80%
same,comparison with tolrestat at 10 mg/kg/day (in words),[1]; at a dose of 50 mg/kg/day,comparable results
same,"% lowering dulcitol accumulation in vivo, L (lens)","[1]; lens, 20 mg/kg/day, diet, four days",0%
same,"% lowering dulcitol accumulation in vivo, L (lens)",[1]; [3],0%
same,"% lowering dulcitol accumulation in vivo, L (lens)","[1]; lens, 115 mg/kg/day, diet, four days",20%
same,effect on accumulation of galactitol in the lenses and sciatic nerves (in words),[1],diminish the accumulation of galactitol in the lenses and sciatic nerves of rats fed galactose
same,"% lowering dulcitol accumulation in vivo, N (sciatic nerve)","[1]; sciatic nerve, 20 mg/kg/day, diet, four days",45%
same,"% lowering dulcitol accumulation in vivo, N (sciatic nerve)",[1]; [4],70%
same,"% lowering dulcitol accumulation in vivo, N (sciatic nerve)","[1]; sciatic nerve, 115 mg/kg/day, diet, four days",100%
same,occurrence as metabolite of tolrestat (in words),[2],one of the metabolites of tolrestat found in humans and other mammals
COc1ccc2c(C(=S=O)N(C)CC(N)=O)cccc2c1C(F)(F)F [[[[6-Methoxy-5-(trifluoromethyl)-1-naphthalenyl]thioxomethyl]methylamino]-acetamide S-oxide],inhibition at 0.1 µM,aldose reductase,3%
same,"% lowering dulcitol accumulation in vivo, L (lens)","[1]; 58 mg/kg/day, 96 h",0%
same,"% lowering dulcitol accumulation in vivo, N (sciatic nerve)","[1]; 58 mg/kg/day, 96 h",77%
same,comparison with tolrestat at 10 mg/kg/day (in words),[1]; at a dose of 58 mg/kg/day,comparable results
same,"% lowering dulcitol accumulation in vivo, L (lens)","[1]; lens, 12 mg/kg/day, mode of administration not given, four days",0%
same,effect on accumulation of galactitol in the lenses and sciatic nerves (in words),[1],diminish the accumulation of galactitol in the lenses and sciatic nerves of rats fed galactose
same,"% lowering dulcitol accumulation in vivo, N (sciatic nerve)","[1]; sciatic nerve, 12 mg/kg/day, mode of administration not given, four days",45%
"COc1ccc2c(C(=S)N(C)CC(=O)O)cccc2c1C(F)(F)F [tolrestat, N-[[6-methoxy-5-(trifluoromethyl)-1-naphthalenyl]thioxomethyl]-N-methylglycine, reference compound]","% lowering dulcitol accumulation in vivo, L (lens)","[1]; lens, 10 mg/kg/day, gavage (same experiment), four days",0%
same,"% lowering dulcitol accumulation in vivo, N (sciatic nerve)","[1]; sciatic nerve, 10 mg/kg/day, gavage (same experiment), four days",81%
